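Five concentrations, 48 hours, 96-well plates. The concentration for full growth arrest is given as TGI.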
Assays:
Experiment in all cases: DTP human tumour cell line panel, 48 h
786-0 renal = system: 786-0 renal
A549 NSCLC = system: A549 NSCLC
ACHN renal = system: ACHN renal
CAKI-1 renal = system: CAKI-1 renal
CCRF-CEM leukemia = system: CCRF-CEM leukemia
COLO 205 colon = system: COLO 205 colon
DU-145 prostate = system: DU-145 prostate
EKVX NSCLC = system: EKVX NSCLC
HCT-116 colon = system: HCT-116 colon
HCT-15 colon = system: HCT-15 colon
HL-60(TB) leukemia = system: HL-60(TB) leukemia
HOP-62 NSCLC = system: HOP-62 NSCLC
HS 578T breast = system: HS 578T breast
HT29 colon = system: HT29 colon
IGROV1 ovarian = system: IGROV1 ovarian
K-562 leukemia = system: K-562 leukemia
KM12 colon = system: KM12 colon
LOX IMVI melanoma = system: LOX IMVI melanoma
M14 melanoma = system: M14 melanoma
MCF7 breast = system: MCF7 breast
MDA-MB-231 breast = system: MDA-MB-231 breast
MDA-MB-435 = system: MDA-MB-435
MOLT-4 leukemia = system: MOLT-4 leukemia
NCI-H226 lung = system: NCI-H226 lung
NCI-H460 lung = system: NCI-H460 lung
NCI-H522 lung = system: NCI-H522 lung
NCI/ADR-RES ovarian = system: NCI/ADR-RES ovarian
OVCAR-3 ovarian = system: OVCAR-3 ovarian
OVCAR-5 ovarian = system: OVCAR-5 ovarian
OVCAR-8 ovarian = system: OVCAR-8 ovarian
PC-3 prostate = system: PC-3 prostate
RXF 393 renal = system: RXF 393 renal
SF-268 CNS = system: SF-268 CNS
SF-295 CNS = system: SF-295 CNS
SK-MEL-2 melanoma = system: SK-MEL-2 melanoma
SK-MEL-28 melanoma = system: SK-MEL-28 melanoma
SK-OV-3 ovarian = system: SK-OV-3 ovarian
SN12C renal = system: SN12C renal
SNB-19 CNS = system: SNB-19 CNS
SNB-75 CNS = system: SNB-75 CNS
SR leukemia = system: SR leukemia
SW-620 colon = system: SW-620 colon
T-47D breast = system: T-47D breast
TK-10 renal = system: TK-10 renal
U251 CNS = system: U251 CNS
UACC-257 melanoma = system: UACC-257 melanoma
UACC-62 melanoma = system: UACC-62 melanoma
UO-31 renal = system: UO-31 renal

## c1ccc(Cc2cc(-c3ccccc3)n[nH]2)cc1
786-0 renal
  TGI: 43.4 µM
A549 NSCLC
  TGI: 26 µM
ACHN renal
  TGI: 36.4 µM
CAKI-1 renal
  TGI: 32.9 µM
CCRF-CEM leukemia
  TGI: 27 µM
COLO 205 colon
  TGI: 31.2 µM
DU-145 prostate
  TGI: 26.2 µM
EKVX NSCLC
  TGI: 27.5 µM
HCT-116 colon
  TGI: 88.9 µM
HCT-15 colon
  TGI: 53 µM
HL-60(TB) leukemia
  TGI: 39.3 µM
HOP-62 NSCLC
  TGI: 92.9 µM
HS 578T breast
  TGI: 36.7 µM
HT29 colon
  TGI: 23.2 µM
IGROV1 ovarian
  TGI: 34 µM
K-562 leukemia
  TGI: 25.6 µM
KM12 colon
  TGI: 28.8 µM
LOX IMVI melanoma
  TGI: 28.3 µM
M14 melanoma
  TGI: 80.1 µM
MCF7 breast
  TGI: 40.3 µM
MDA-MB-231 breast
  TGI: 25.8 µM
MDA-MB-435
  TGI: 22.8 µM
MOLT-4 leukemia
  TGI: 23.1 µM
NCI-H226 lung
  TGI: 33.5 µM
NCI-H460 lung
  TGI: 33.3 µM
NCI-H522 lung
  TGI: 33.2 µM
NCI/ADR-RES ovarian
  TGI: 49.4 µM
OVCAR-3 ovarian
  TGI: 16.8 µM
OVCAR-5 ovarian
  TGI: 47.9 µM
OVCAR-8 ovarian
  TGI: 30.9 µM
PC-3 prostate
  TGI: 34.2 µM
RXF 393 renal
  TGI: 22.1 µM
SF-268 CNS
  TGI: 57.6 µM
SF-295 CNS
  TGI: 19.5 µM
SK-MEL-2 melanoma
  TGI: 31.8 µM
SK-MEL-28 melanoma
  TGI: 25.8 µM
SK-OV-3 ovarian
  TGI: > 100 µM
SN12C renal
  TGI: 26.3 µM
SNB-19 CNS
  TGI: 82.7 µM
SNB-75 CNS
  TGI: 15.8 µM
SR leukemia
  TGI: 32.3 µM
SW-620 colon
  TGI: 28.7 µM
T-47D breast
  TGI: > 100 µM
TK-10 renal
  TGI: 42.5 µM
U251 CNS
  TGI: 27.9 µM
UACC-257 melanoma
  TGI: 31.5 µM
UACC-62 melanoma
  TGI: 27.4 µM
UO-31 renal
  TGI: 49.8 µM

— PubChem BioAssay (NCI)
